Assay results: patent US10119168B2, “Methods for the treatment of kidney fibrosis” (priority 2014, dated 2018)

Tested on: mouse kidney
Assay: RNA-seq of kidney gene expression over time in FA nephropathy progression (Table 1)
Assay type: in vivo
Source text: Identification of Candidate Genes for Biomarkers of Kidney Fibrosis Through RNA-Seq. […] To select genes that are indicative of fibrosis candidates were considered from this later group that had robust upregulation (>5-fold with >100 read counts at peak) over time as fibrosis progresses. Another important criteria was the location of the protein product of the gene, either in extracellular matrix or transmembrane, to increase the chance of detecting it in the urine and use it as a biomarker(11).
(§1) RNA samples (n=3 mice/time point) were sequenced at the Bioplymers Facility at the Harvard Medical School. Libraries were prepared from 10 ng total RNA per sample using the IntegenX Apollo 324 system and NuGEN SPIA reagents. Libraries were multiplexed in groups of three per lane of a flowcell and 50 cycle, paired-end sequencing was performed on an Illumina HiSeq2000 instrument. Illumina sequence quality was surveyed with FastQC (available on the world wide web at bioinformatics.babraham.ac.uk/projects/fastqc/) to ensure suitability of library generation and sequencing for further analysis. Adapters and lower quality bases were trimmed with Cutadapt (available on the world wide web at code.google.com/p/cutadapt/), using a Phred quality cutoff of 20, and reassessed with FastQC. Trimmed reads were aligned to the Ensembl NCBIM37 Mus musculus genome build with TopHat2. Aligned reads were summarized at the gene level against the Illumina iGenomes (available on the world wide web at tophat.cbcb.umd.edu/igenomes.html) NCBIM37 Mus musculus gene annotations using HTSeq (available on the world wide web at huber.embl.de/users/anders/HTSeq/doc/overview.html). […] The full dataset is available in the NCBI GEO database with the accession number GSE65267. Raw data is accessible on the world wide web at ncbi.nlm.nih.gov/geo/query/acc.cgi?acc=GSE65267.
Mice were sacrificed at 1, 2, 3, 7 and 14 days following administration. […] All mice were sacrificed at 14 days.
as §1, with “The quantity and quality of mRNA” for “RNA samples (n=3 mice/time point)”, “assayed on an Agilent 2200 TapeStation instrument and by SYBR qPCR assay.” for “sequenced at the Bioplymers Facility at the Harvard Medical School.”, “(https://code.google.com/p/cutadapt/),” for “(available on the world wide web at code.google.com/p/cutadapt/),”

For `Nc1nc2ncc(CNc3ccc(C(=O)N[C@@H](CCC(=O)O)C(=O)O)cc3)nc2c(=O)[nH]1` [FA, folic acid], the “Slco1a1 mean fold change from normal” value (Day 2) was 0.16 fold, the “Smoc2 mean fold change from normal” value (Day 2) was 0.06 fold and the “Smpdl3b mean fold change from normal” value (Day 2) was 124.22 fold. For the same molecule, the “Snx31 mean fold change from normal” value (Day 2) was 0.05 fold, the “Socs1 mean fold change from normal” value (Day 2) was 53.23 fold and the “Sox4 mean fold change from normal” value (Day 2) was 13.93 fold. The “Sox9 mean fold change from normal” value (Day 2) was 49.89 fold, the “Spaca7 mean fold change from normal” value (Day 2) was 74.80 fold and the “Spink6 mean fold change from normal” value (Day 2) was 13.93 fold. The “Spp1 mean fold change from normal” value (Day 2) was 174.85 fold, the “Spred3 mean fold change from normal” value (Day 2) was 11.03 fold and the “Spsb1 mean fold change from normal” value (Day 2) was 13.04 fold. For the same molecule, the “Spt1c3 mean fold change from normal” value (Day 2) was 0.11 fold, the “St8sia2 mean fold change from normal” value (Day 2) was 2.10 fold and the “Stil mean fold change from normal” value (Day 2) was 32.74 fold. The “Stk32a mean fold change from normal” value (Day 2) was 7.59 fold, the “Stra6 mean fold change from normal” value (Day 2) was 1.95 fold and the “Susd2 mean fold change from normal” value (Day 2) was 0.07 fold. The “Sycn mean fold change from normal” value (Day 2) was 0.07 fold, the “Synpr mean fold change from normal” value (Day 2) was 0.02 fold and the “Sytl2 mean fold change from normal” value (Day 2) was 5.53 fold. The “Tagln2 mean fold change from normal” value (Day 2) was 6.40 fold, the “Tbx10 mean fold change from normal” value (Day 2) was 0.10 fold and the “Timd2 mean fold change from normal” value (Day 2) was 2.97 fold. For the same molecule, the “Timp1 mean fold change from normal” value (Day 2) was 194.76 fold, the “Tlr2 mean fold change from normal” value (Day 2) was 12.76 fold and the “Tmem25 mean fold change from normal” value (Day 2) was 0.34 fold. For the same molecule, the “Tmem26 mean fold change from normal” value (Day 2) was 0.07 fold, the “Tmem207 mean fold change from normal” value (Day 2) was 0.02 fold and the “Tmsb10 mean fold change from normal” value (Day 2) was 18.72 fold. For the same molecule, the “Tnc mean fold change from normal” value (Day 2) was 9.63 fold, the “Tnfaip3 mean fold change from normal” value (Day 2) was 3.85 fold and the “Tnfrsf23 mean fold change from normal” value (Day 2) was 7.62 fold. For the same molecule, the “Top2a mean fold change from normal” value (Day 2) was 15.75 fold, the “Tpx2 mean fold change from normal” value (Day 2) was 10.97 fold and the “Tril mean fold change from normal” value (Day 2) was 0.43 fold. For the same molecule, the “Tsc22d1 mean fold change from normal” value (Day 2) was 6.92 fold, the “Ttc36 mean fold change from normal” value (Day 2) was 0.10 fold and the “Ttr mean fold change from normal” value (Day 2) was 0.04 fold. For the same molecule, the “Tyrobp mean fold change from normal” value (Day 2) was 1.65 fold, the “Ugt3a1 mean fold change from normal” value (Day 2) was 0.07 fold and the “Uhrf1 mean fold change from normal” value (Day 2) was 31.75 fold. For the same molecule, the “Upp2 mean fold change from normal” value (Day 2) was 0.11 fold, the “Vcam1 mean fold change from normal” value (Day 2) was 30.80 fold and the “Vill mean fold change from normal” value (Day 2) was 0.28 fold. For the same molecule, the “Vmn1r18 mean fold change from normal” value (Day 2) was 0.01 fold, the “Vmn1r19 mean fold change from normal” value (Day 2) was 0.02 fold and the “Vmn1r20 mean fold change from normal” value (Day 2) was 0.34 fold. The “Vmn1r-ps11 mean fold change from normal” value (Day 2) was 0.03 fold, the “Vstm2a mean fold change from normal” value (Day 2) was 0.05 fold and the “Vtcn1 mean fold change from normal” value (Day 2) was 44.16 fold. For the same molecule, the “Vwce mean fold change from normal” value (Day 2) was 0.08 fold, the “Wfdc15b mean fold change from normal” value (Day 2) was 0.05 fold and the “Ybx2 mean fold change from normal” value (Day 2) was 0.12 fold. The “7SK RNA mean fold change from normal” value (Day 3) was 0.08 fold, the “2310042D19Rik mean fold change from normal” value (Day 3) was 0.47 fold and the “4930533I22Rik mean fold change from normal” value (Day 3) was 0.22 fold. The “4933417A18Rik mean fold change from normal” value (Day 3) was 0.49 fold, the “8430408G22Rik mean fold change from normal” value (Day 3) was 0.34 fold and the “9030619P08Rik mean fold change from normal” value (Day 3) was 0.02 fold. For the same molecule, the “Slc2a5 mean fold change from normal” value (Day 3) was 0.21 fold, the “Slc4a1 mean fold change from normal” value (Day 3) was 0.18 fold and the “Slc5a4a mean fold change from normal” value (Day 3) was 0.51 fold. The “Slc5a12 mean fold change from normal” value (Day 3) was 0.38 fold, the “Slc6a12 mean fold change from normal” value (Day 3) was 0.26 fold and the “Slc7a13 mean fold change from normal” value (Day 3) was 0.11 fold. For the same molecule, the “Slc28a1 mean fold change from normal” value (Day 3) was 0.18 fold, the “Slc34a1 mean fold change from normal” value (Day 3) was 0.33 fold and the “Slc34a2 mean fold change from normal” value (Day 3) was 7.59 fold. For the same molecule, the “Slc34a3 mean fold change from normal” value (Day 3) was 0.09 fold, the “Slc46a3 mean fold change from normal” value (Day 3) was 0.57 fold and the “Slco1a1 mean fold change from normal” value (Day 3) was 0.19 fold. The “Smoc2 mean fold change from normal” value (Day 3) was 1.83 fold, the “Smpdl3b mean fold change from normal” value (Day 3) was 111.13 fold and the “Snx31 mean fold change from normal” value (Day 3) was 0.07 fold. The “Socs1 mean fold change from normal” value (Day 3) was 43.48 fold, the “Sox4 mean fold change from normal” value (Day 3) was 11.69 fold and the “Sox9 mean fold change from normal” value (Day 3) was 52.43 fold. For the same molecule, the “Spaca7 mean fold change from normal” value (Day 3) was 18.32 fold, the “Spink6 mean fold change from normal” value (Day 3) was 9.16 fold and the “Spp1 mean fold change from normal” value (Day 3) was 63.01 fold. For the same molecule, the “Spred3 mean fold change from normal” value (Day 3) was 8.99 fold, the “Spsb1 mean fold change from normal” value (Day 3) was 4.64 fold and the “Spt1c3 mean fold change from normal” value (Day 3) was 1.02 fold. The “St8sia2 mean fold change from normal” value (Day 3) was 10.17 fold, the “Stil mean fold change from normal” value (Day 3) was 10.68 fold and the “Stk32a mean fold change from normal” value (Day 3) was 5.33 fold. The “Stra6 mean fold change from normal” value (Day 3) was 8.56 fold and the “Susd2 mean fold change from normal” value (Day 3) was 0.32 fold.
